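Step 1: Grow cells in 96-well plates. Step 2: Expose to compound for 48 hours at 5 concentrations. Step 3: Interpolate endpoints linearly; if unreached, use highest concentration. At the GI50, growth is halved. At the TGI there is no net growth.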
Tests used:
Experiment in all cases: growth of human tumour cells (NCI), 48 h
IGROV1 ovarian = system: IGROV1 ovarian
ACHN renal = system: ACHN renal
SR leukemia = system: SR leukemia
OVCAR-8 ovarian = system: OVCAR-8 ovarian
OVCAR-4 ovarian = system: OVCAR-4 ovarian
CCRF-CEM leukemia = system: CCRF-CEM leukemia
MDA-MB-231 breast = system: MDA-MB-231 breast
UACC-62 melanoma = system: UACC-62 melanoma
HCC-2998 colon = system: HCC-2998 colon
PC-3 prostate = system: PC-3 prostate
K-562 leukemia = system: K-562 leukemia
MALME-3M melanoma = system: MALME-3M melanoma
HL-60(TB) leukemia = system: HL-60(TB) leukemia
SW-620 colon = system: SW-620 colon
SK-MEL-2 melanoma = system: SK-MEL-2 melanoma
A498 renal = system: A498 renal
786-0 renal = system: 786-0 renal
SNB-19 CNS = system: SNB-19 CNS
A549 NSCLC = system: A549 NSCLC
CAKI-1 renal = system: CAKI-1 renal
HOP-62 NSCLC = system: HOP-62 NSCLC
DU-145 prostate = system: DU-145 prostate
U251 CNS = system: U251 CNS
EKVX NSCLC = system: EKVX NSCLC
T-47D breast = system: T-47D breast
UO-31 renal = system: UO-31 renal
UACC-257 melanoma = system: UACC-257 melanoma
SNB-75 CNS = system: SNB-75 CNS
SN12C renal = system: SN12C renal
SF-295 CNS = system: SF-295 CNS
NCI-H226 lung = system: NCI-H226 lung
HOP-92 NSCLC = system: HOP-92 NSCLC
SK-MEL-28 melanoma = system: SK-MEL-28 melanoma
RXF 393 renal = system: RXF 393 renal
NCI-H23 lung = system: NCI-H23 lung
KM12 colon = system: KM12 colon
MDA-MB-468 breast = system: MDA-MB-468 breast
HCT-116 colon = system: HCT-116 colon
BT-549 breast = system: BT-549 breast
MOLT-4 leukemia = system: MOLT-4 leukemia
HS 578T breast = system: HS 578T breast
RPMI-8226 leukemia = system: RPMI-8226 leukemia
SK-MEL-5 melanoma = system: SK-MEL-5 melanoma
OVCAR-3 ovarian = system: OVCAR-3 ovarian
SF-539 CNS = system: SF-539 CNS
HCT-15 colon = system: HCT-15 colon
NCI/ADR-RES ovarian = system: NCI/ADR-RES ovarian
OVCAR-5 ovarian = system: OVCAR-5 ovarian
NCI-H460 lung = system: NCI-H460 lung
MCF7 breast = system: MCF7 breast
COLO 205 colon = system: COLO 205 colon
LOX IMVI melanoma = system: LOX IMVI melanoma
M14 melanoma = system: M14 melanoma
HT29 colon = system: HT29 colon
SF-268 CNS = system: SF-268 CNS
MDA-MB-435 = system: MDA-MB-435
NCI-H522 lung = system: NCI-H522 lung
TK-10 renal = system: TK-10 renal
SK-OV-3 ovarian = system: SK-OV-3 ovarian

With CN1CCN(Cc2ccc(NC(=O)c3cncc(C#Cc4cnc5ccc(N[C@@H]6CCOC6)nn45)c3)cc2C(F)(F)F)CC1 the GI50 (IGROV1 ovarian) was 107 nM, the TGI (IGROV1 ovarian) was 531 nM and the GI50 (ACHN renal) was 256 nM. It also gave a TGI (ACHN renal) of 1040 nM, a GI50 (SR leukemia) of 99.2 nM and a TGI (SR leukemia) of 7320 nM. It also gave a GI50 (OVCAR-8 ovarian) of 189 nM, a TGI (OVCAR-8 ovarian) of 963 nM and a GI50 (OVCAR-4 ovarian) of 138 nM. For the same compound, the TGI (OVCAR-4 ovarian) was 646 nM, the GI50 (CCRF-CEM leukemia) was less than 9.7 nM and the TGI (CCRF-CEM leukemia) was 356 nM. The GI50 (MDA-MB-231 breast) was 42.3 nM, the TGI (MDA-MB-231 breast) was 289 nM and the GI50 (UACC-62 melanoma) was 156 nM. The TGI (UACC-62 melanoma) was 539 nM, the GI50 (HCC-2998 colon) was 198 nM and the TGI (HCC-2998 colon) was 553 nM. The GI50 (PC-3 prostate) was 161 nM, the TGI (PC-3 prostate) was 1160 nM and the GI50 (K-562 leukemia) was less than 9.7 nM. For the same compound, the TGI (K-562 leukemia) was 10100 nM, the GI50 (MALME-3M melanoma) was 89.7 nM and the TGI (MALME-3M melanoma) was 299 nM. It also gave a GI50 (HL-60(TB) leukemia) of 85.5 nM, a TGI (HL-60(TB) leukemia) of 759 nM and a GI50 (SW-620 colon) of 94.4 nM. It also gave a TGI (SW-620 colon) of 603 nM, a GI50 (SK-MEL-2 melanoma) of 173 nM and a TGI (SK-MEL-2 melanoma) of 318 nM. The GI50 (A498 renal) was 269 nM, the TGI (A498 renal) was 475 nM and the GI50 (786-0 renal) was 235 nM. The TGI (786-0 renal) was 712 nM, the GI50 (SNB-19 CNS) was 222 nM and the TGI (SNB-19 CNS) was 769 nM. For the same compound, the GI50 (A549 NSCLC) was 138 nM, the TGI (A549 NSCLC) was 1010 nM and the GI50 (CAKI-1 renal) was 128 nM. For the same compound, the TGI (CAKI-1 renal) was 484 nM, the GI50 (HOP-62 NSCLC) was 104 nM and the TGI (HOP-62 NSCLC) was 355 nM. For the same compound, the GI50 (DU-145 prostate) was 148 nM, the TGI (DU-145 prostate) was 557 nM and the GI50 (U251 CNS) was 216 nM. It also gave a TGI (U251 CNS) of 879 nM, a GI50 (EKVX NSCLC) of 120 nM and a TGI (EKVX NSCLC) of 383 nM. It also gave a GI50 (T-47D breast) of 323 nM, a TGI (T-47D breast) of 3140 nM and a GI50 (UO-31 renal) of 1190 nM. The TGI (UO-31 renal) was 2930 nM, the GI50 (UACC-257 melanoma) was 361 nM and the TGI (UACC-257 melanoma) was 4380 nM. The GI50 (SNB-75 CNS) was 126 nM, the TGI (SNB-75 CNS) was 300 nM and the GI50 (SN12C renal) was 34 nM. It also gave a TGI (SN12C renal) of 271 nM, a GI50 (SF-295 CNS) of 88.8 nM and a TGI (SF-295 CNS) of 587 nM. For the same compound, the GI50 (NCI-H226 lung) was 14.4 nM, the TGI (NCI-H226 lung) was 218 nM and the GI50 (HOP-92 NSCLC) was 27.7 nM. The TGI (HOP-92 NSCLC) was 133 nM, the GI50 (SK-MEL-28 melanoma) was 193 nM and the TGI (SK-MEL-28 melanoma) was 629 nM. The GI50 (RXF 393 renal) was 71.3 nM, the TGI (RXF 393 renal) was 217 nM and the GI50 (NCI-H23 lung) was 108 nM. For the same compound, the TGI (NCI-H23 lung) was 265 nM, the GI50 (KM12 colon) was less than 9.7 nM and the TGI (KM12 colon) was 761 nM. For the same compound, the GI50 (MDA-MB-468 breast) was 60 nM, the TGI (MDA-MB-468 breast) was 194 nM and the GI50 (HCT-116 colon) was 48.6 nM. It also gave a TGI (HCT-116 colon) of 640 nM, a GI50 (BT-549 breast) of 169 nM and a TGI (BT-549 breast) of 631 nM. For the same compound, the GI50 (MOLT-4 leukemia) was 26.6 nM, the TGI (MOLT-4 leukemia) was 919 nM and the GI50 (HS 578T breast) was 28.8 nM. The TGI (HS 578T breast) was 398 nM, the GI50 (RPMI-8226 leukemia) was 201 nM and the TGI (RPMI-8226 leukemia) was 1570 nM. For the same compound, the GI50 (SK-MEL-5 melanoma) was 193 nM, the TGI (SK-MEL-5 melanoma) was 556 nM and the GI50 (OVCAR-3 ovarian) was 125 nM. The TGI (OVCAR-3 ovarian) was 509 nM, the GI50 (SF-539 CNS) was 19.3 nM and the TGI (SF-539 CNS) was 74.2 nM. For the same compound, the GI50 (HCT-15 colon) was 335 nM, the TGI (HCT-15 colon) was 1370 nM and the GI50 (NCI/ADR-RES ovarian) was 2780 nM. For the same compound, the TGI (NCI/ADR-RES ovarian) was 17100 nM, the GI50 (OVCAR-5 ovarian) was 202 nM and the TGI (OVCAR-5 ovarian) was 618 nM. It also gave a GI50 (NCI-H460 lung) of 104 nM, a TGI (NCI-H460 lung) of 374 nM and a GI50 (MCF7 breast) of 51.8 nM. For the same compound, the TGI (MCF7 breast) was 518 nM, the GI50 (COLO 205 colon) was 30.1 nM and the TGI (COLO 205 colon) was 86.8 nM. The GI50 (LOX IMVI melanoma) was 55.4 nM, the TGI (LOX IMVI melanoma) was 187 nM and the GI50 (M14 melanoma) was 78.4 nM. The TGI (M14 melanoma) was 245 nM, the GI50 (HT29 colon) was 87.9 nM and the TGI (HT29 colon) was 415 nM. It also gave a GI50 (SF-268 CNS) of 122 nM, a TGI (SF-268 CNS) of 377 nM and a GI50 (MDA-MB-435) of 113 nM. It also gave a TGI (MDA-MB-435) of 338 nM, a GI50 (NCI-H522 lung) of 122 nM and a TGI (NCI-H522 lung) of 280 nM. It also gave a GI50 (TK-10 renal) of 245 nM, a TGI (TK-10 renal) of 646 nM and a GI50 (SK-OV-3 ovarian) of 274 nM. The TGI (SK-OV-3 ovarian) was 713 nM.

— PubChem BioAssay (NCI)
